# Laboratory results from patent US7517884B2 (Kalypsys Inc., priority 1998, dated 2009).
# Tests used:
# Assay type in all cases: cell-based, murine and human
# Conditions in all cases: GAL4-PPAR LBD chimera
# PPAR-delta = biological target: T1, PPAR-delta (UniProt Q03181); experiment: PPAR-delta transactivation assay (GAL4 chimera, luciferase reporter) in CV-1 cells
# T1 sequence (Q03181 1-441): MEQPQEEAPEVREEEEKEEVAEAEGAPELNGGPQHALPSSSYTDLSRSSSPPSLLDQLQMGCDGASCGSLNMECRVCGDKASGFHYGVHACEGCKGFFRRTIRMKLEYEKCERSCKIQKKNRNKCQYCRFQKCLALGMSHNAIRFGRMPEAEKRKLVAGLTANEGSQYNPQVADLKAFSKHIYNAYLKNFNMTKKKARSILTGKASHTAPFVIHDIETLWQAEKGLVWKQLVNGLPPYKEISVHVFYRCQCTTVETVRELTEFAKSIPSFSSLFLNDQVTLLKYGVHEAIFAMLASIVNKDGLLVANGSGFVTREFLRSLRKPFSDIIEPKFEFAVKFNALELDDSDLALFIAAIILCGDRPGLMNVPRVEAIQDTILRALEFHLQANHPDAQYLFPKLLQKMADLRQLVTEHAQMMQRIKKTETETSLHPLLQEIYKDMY
# In short: (§1)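 CV-1 cells transiently transfected with murine or human PPAR-alpha, -gamma or -delta ligand-binding domain fused to GAL4 DNA-binding domain plus a GAL4-site luciferase reporter. After replating in phenol-red-free DME with 5% delipidated calf serum, cells were exposed to compound 20-24 h; luciferase read-out gave EC50.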
# PPAR-alpha = biological target: T2, PPAR-alpha (UniProt Q07869); experiment: PPAR-alpha transactivation assay (GAL4 chimera, luciferase reporter) in CV-1 cells
# T2 sequence (Q07869 1-468): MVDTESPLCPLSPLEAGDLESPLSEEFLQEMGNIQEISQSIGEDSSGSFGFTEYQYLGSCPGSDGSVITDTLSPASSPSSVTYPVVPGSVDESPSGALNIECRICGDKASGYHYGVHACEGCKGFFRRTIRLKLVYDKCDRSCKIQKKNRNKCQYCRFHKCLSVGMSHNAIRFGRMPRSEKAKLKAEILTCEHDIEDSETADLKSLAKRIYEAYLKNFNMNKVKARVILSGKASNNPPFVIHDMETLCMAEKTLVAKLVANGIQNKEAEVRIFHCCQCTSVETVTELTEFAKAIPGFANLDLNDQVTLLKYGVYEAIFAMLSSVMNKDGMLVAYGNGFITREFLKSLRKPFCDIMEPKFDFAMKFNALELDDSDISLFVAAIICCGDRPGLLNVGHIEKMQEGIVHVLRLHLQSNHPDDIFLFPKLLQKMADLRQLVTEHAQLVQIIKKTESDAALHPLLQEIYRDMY
# In short: as §1
# PPAR-gamma = biological target: T3, PPAR-gamma (UniProt P37231); experiment: PPAR-gamma transactivation assay (GAL4 chimera, luciferase reporter) in CV-1 cells
# T3 sequence (P37231 1-505): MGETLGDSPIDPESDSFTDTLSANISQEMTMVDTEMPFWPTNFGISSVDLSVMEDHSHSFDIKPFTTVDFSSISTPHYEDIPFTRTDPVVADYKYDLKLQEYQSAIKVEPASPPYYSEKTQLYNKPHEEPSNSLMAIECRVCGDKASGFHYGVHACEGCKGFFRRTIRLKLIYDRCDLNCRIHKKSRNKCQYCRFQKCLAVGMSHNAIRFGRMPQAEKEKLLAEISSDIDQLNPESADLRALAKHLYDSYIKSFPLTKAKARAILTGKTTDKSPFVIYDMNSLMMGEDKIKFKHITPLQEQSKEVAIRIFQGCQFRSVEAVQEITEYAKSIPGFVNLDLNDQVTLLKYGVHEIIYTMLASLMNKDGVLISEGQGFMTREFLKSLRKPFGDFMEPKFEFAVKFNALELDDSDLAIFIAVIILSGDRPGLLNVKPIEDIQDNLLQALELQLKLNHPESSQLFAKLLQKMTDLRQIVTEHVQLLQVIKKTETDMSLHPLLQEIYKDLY
# In short: as §1
EC50 (PPAR-delta),EC50 (PPAR-alpha),EC50 (PPAR-gamma),SMILES
< 5 µM,< 5 µM,5 to 100 µM,"C[C@@H]1CN(c2ccc(C(F)(F)F)c(F)c2)C[C@H](C)N1S(=O)(=O)c1ccc2c(c1)C(C(=O)O)CC2 (stereo partly drawn) [Example 70, 6-[cis-2,6-dimethyl-4-(3-fluoro-4-trifluoromethyl-phenyl)-piperazine-1-sulfonyl]-indan-1-carboxylic acid]"
< 5 µM,< 5 µM,< 5 µM,"O=C(O)C1CCc2ccc(S(=O)(=O)N3CCN(c4ccc(OC(F)(F)F)cc4)CC3)cc21 (stereo not drawn) [Example 71, 6-[4-(4-trifluoromethoxy-phenyl)-piperazine-1-sulfonyl]-indan-1-carboxylic acid]"
< 5 µM,< 5 µM,< 5 µM,"CCC1CN(c2ccc(C(F)(F)F)cn2)CCN1S(=O)(=O)c1ccc2c(c1)C(C(=O)O)CC2 (stereo not drawn) [Example 72, 6-[2-ethyl-4-(5-trifluoromethyl-pyridin-2-yl)-piperazine-1-sulfonyl]-indan-1-carboxylic acid]"
< 5 µM,5 to 100 µM,< 5 µM,"CC1(C)CN(S(=O)(=O)c2ccc3c(c2)C(C(=O)O)CC3)CCN1c1ccc(C(F)(F)F)cn1 (stereo not drawn) [Example 73, 6-[3,3-dimethyl-4-(5-trifluoromethyl-pyridin-2-yl)-piperazine-1-sulfonyl]-indan-1-carboxylic acid]"
< 5 µM,< 5 µM,< 5 µM,"O=C(O)C1CCc2ccc(S(=O)(=O)N3CCN(c4ccc(C(F)(F)F)c(Cl)c4)CC3)cc21 (stereo not drawn) [Example 74, 6-[4-(3-chloro-4-trifluoromethyl-phenyl)-piperazine-1-sulfonyl]-indan-1-carboxylic acid]"
< 5 µM,> 100 µM,> 100 µM,"C[C@@H]1CN(c2ccc(C(F)(F)F)cn2)C[C@H](C)N1S(=O)(=O)c1cccc2c1CC(C(=O)O)C2 (stereo partly drawn) [Example 77, 4-[cis-2,6-dimethyl-4-(5-trifluoromethyl-pyridin-2-yl)-piperazine-1-sulfonyl]-indan-2-carboxylic acid]"
< 5 µM,5 to 100 µM,5 to 100 µM,O=C(O)C1CCc2ccc(S(=O)(=O)N3C4CCC3CN(c3ccc(C(F)(F)F)cn3)C4)cc21 (stereo not drawn) [Example 78]
< 5 µM,> 100 µM,> 100 µM,"C[C@@H]1CN(c2ccc(OC(F)(F)F)cc2)C[C@H](C)N1S(=O)(=O)c1cccc2c1CC(C(=O)O)C2 (stereo partly drawn) [Example 79, 4-[cis-2,6-dimethyl-4-(4-trifluoromethoxy-phenyl)-piperazine-1-sulfonyl]-indan-2-carboxylic acid]"
< 5 µM,5 to 100 µM,5 to 100 µM,"C[C@@H]1CN(c2ccc(C(F)(F)F)c(F)c2)C[C@H](C)N1S(=O)(=O)c1cccc2c1CC(C(=O)O)C2 (stereo partly drawn) [Example 83, 4-[4-(3-fluoro-4-trifluoromethyl-phenyl)-cis-2,6-dimethyl-piperazine-1-sulfonyl]-indan-2-carboxylic acid]"
5 to 100 µM,> 100 µM,5 to 100 µM,"C[C@@H]1CN(c2ccc(OC(F)(F)F)cc2)C[C@H](C)N1S(=O)(=O)c1ccc2c(c1)CC(C(=O)O)C2 (stereo partly drawn) [Example 84, 5-[2,6-cis-dimethyl-4-(4-trifluoromethoxy-phenyl)-piperazine-1-sulfonyl]-indan-2-carboxylic acid]"
< 5 µM,5 to 100 µM,5 to 100 µM,"Cc1cc(N2C[C@@H](C)N(S(=O)(=O)c3ccc4c(c3)C(C(=O)O)CC4)[C@@H](C)C2)ccc1OC(F)F (stereo partly drawn) [Example 85, 6-[4-(4-difluoromethoxy-3-methyl-phenyl)-2,6-dimethyl-piperazine-1-sulfonyl]-indan-1-carboxylic acid]"
< 5 µM,> 100 µM,5 to 100 µM,"C[C@@H]1CN(c2ccc(OC(F)(F)F)cc2)C[C@H](C)N1S(=O)(=O)c1ccc2ccn(CC(=O)O)c2c1 [Example 88, {6-[cis-2,6-Dimethyl-4-(4-trifluoromethoxy-phenyl)-piperazine-1-sulfonyl]-indol-1-yl}-acetic acid]"
< 5 µM,< 5 µM,< 5 µM,"O=C(O)C1Cc2cccc(S(=O)(=O)N3CCN(c4ccc(OC(F)(F)F)cn4)CC3)c2C1 (stereo not drawn) [Example 89, 4-[4-(5-Trifluoromethoxy-pyridin-2-yl)-piperazine-1-sulfonyl]-indan-2-carboxylic acid]"
< 5 µM,5 to 100 µM,5 to 100 µM,"O=C(O)Cn1ccc2ccc(S(=O)(=O)N3CCN(c4ccc(OC(F)(F)F)cc4)CC3)cc21 [Example 90, {6-[4-(4-Trifluoromethoxy-phenyl)-piperazine-1-sulfonyl]-indol-1-yl}-acetic acid]"
< 5 µM,5 to 100 µM,< 5 µM,"O=C(O)CN1CCc2ccc(S(=O)(=O)N3CCN(c4ccc(OC(F)(F)F)cc4)CC3)cc21 [Example 91, {6-[4-(4-trifluoromethoxy-phenyl)-piperazine-1-sulfonyl]-2,3-dihydro-indol-1-yl}-acetic acid]"
< 5 µM,5 to 100 µM,5 to 100 µM,"O=C(O)C1Cc2cccc(S(=O)(=O)N3CCN(c4ccc(Cl)cc4)CC3)c2C1 (stereo not drawn) [Example 92, 4-[4-(4-chloro-phenyl)-piperazine-1-sulfonyl]-indan-2-carboxylic acid]"
< 5 µM,5 to 100 µM,5 to 100 µM,"C[C@H]1CN(c2ccc(OC(F)(F)F)cc2)CCN1S(=O)(=O)c1cccc2c1CC(C(=O)O)C2 (stereo partly drawn) [Example 93, 4-[2-(S)-Methyl-4-(4-trifluoromethoxy-phenyl)-piperazine-1-sulfonyl]-indan-2-carboxylic acid]"
< 5 µM,5 to 100 µM,5 to 100 µM,"C[C@H]1CN(c2ccc(C(F)(F)F)cn2)CCN1S(=O)(=O)c1cccc2c1CC(C(=O)O)C2 (stereo partly drawn) [Example 94, 4-[2-(S)-Methyl-4-(5-trifluoromethyl-pyridin-2-yl)-piperazine-1-sulfonyl]-indan-2-carboxylic acid]"
< 5 µM,5 to 100 µM,5 to 100 µM,"C[C@@H]1CN(Cc2ccc(OC(F)(F)F)cc2)C[C@H](C)N1S(=O)(=O)c1cccc2c1CC(C(=O)O)C2 (stereo partly drawn) [Example 95, 4-[cis-2,6-dimethyl-4-(4-trifluoromethoxyl-benzyl)-piperazine-1-sulfonyl]-indan-2-carboxylic acid]"
< 5 µM,> 100 µM,5 to 100 µM,"C[C@@H]1CN(Cc2ccc(C(F)(F)F)cc2)C[C@H](C)N1S(=O)(=O)c1cccc2c1CC(C(=O)O)C2 (stereo partly drawn) [Example 96, 4-[cis-2,6-dimethyl-4-(4-trifluoromethyl-benzyl)-piperazine-1-sulfonyl]-indan-2-carboxylic acid]"
< 5 µM,5 to 100 µM,5 to 100 µM,"O=C(O)C1Cc2cccc(S(=O)(=O)N3CCN(Cc4ccc(C(F)(F)F)cc4)CC3)c2C1 (stereo not drawn) [Example 97, 4-[4-(4-trifluoromethyl-benzyl)-piperazine-1-sulfonyl]-indan-2-carboxylic acid]"
< 5 µM,5 to 100 µM,< 5 µM,"O=C(O)C1Cc2cccc(S(=O)(=O)N3CCN(Cc4ccc(OC(F)(F)F)cc4)CC3)c2C1 (stereo not drawn) [Example 98, 4-[4-(4-trifluoromethoxy-benzyl)-piperazine-1-sulfonyl]-indan-2-carboxylic acid]"
< 5 µM,5 to 100 µM,5 to 100 µM,C[C@@H]1CN(c2ccc(OC(F)(F)F)cn2)C[C@H](C)N1S(=O)(=O)c1cccc2c1CC(C(=O)O)C2 (stereo partly drawn) [Example 99]
